Values quoted from earlier work as cited in patent publication US20230067378A1, “COMPOSITIONS AND METHODS FOR THE TREATMENT OF ESTROGEN-DEPENDENT DISORDERS” (ObsEva S.A., priority 2018, published 2023).

Conditions: in vivo; cited from earlier work

Compound	half-life
COc1cccc(-c2c(C)n(Cc3c(F)cccc3C(F)(F)F)c(=O)n(C[C@H](NCCCC(=O)O)c3ccccc3)c2=O)c1F [Elagolix, sodium 4-({(1R)-2-[5-(2-fluoro-3-methoxyphenyl)-3-{[2-fluoro-6-(trifluoromethyl)phenyl]methyl}-4-methyl-2,6-dioxo-3,6-dihydropyrimidin-1(2H)-yl]-1-phenylethyl}amino)butanoate]	2 to 6 h
CONC(=O)Nc1ccc(-c2sc3c(c2CN(C)C)c(=O)n(-c2ccc(OC)nn2)c(=O)n3Cc2c(F)cccc2F)cc1 [relugolix, N-(4-(1-(2,6-difluorobenzyl)-5-((dimethylamino)methyl)-3-(6-methoxy-3-pyridazinyl)-2,4-dioxo-1,2,3,4-tetrahydrothieno[2,3-d]pyrimidin-6-yl)phenyl)-N′-methoxyurea]	37 to 42 h
